Test results: PubChem BioAssay AID1508591

Settings: rat; liver microsomes; pH 7.4; 15.0 min; 1.0 µM

Question: Which half-life does the source give for `Cc1noc(C)c1[S+](=O)([O-])N1CCC2(CC1)CC(c1cccc(C(F)(F)F)c1)=NO2` here?
Answer: 24.8 min

Question: For `CC(=O)c1c(C)[nH]c(C(=O)Nc2cccc(S(=O)(=O)N3CCCCC3)c2)c1C`, which half-life is on record?
Answer: 1.7 min

Question: With `COc1ccc(C2(C(=O)N3CCC(n4cc(-c5nc(C)no5)nn4)CC3)CC2)cc1` as the compound, how does the half-life read?
Answer: 7.38 min

Question: For `Cc1c(CN(C)c2cc(C3CC(O)C3)nc(N)n2)[nH]c2ccccc12` (stereo not drawn), which half-life is on record?
Answer: 15 min

Question: With `CN(C(=O)c1cn2c(-c3ccc(C(F)(F)F)cc3)cnc2cn1)c1ccc(C#N)cc1` as the compound, how does the half-life read?
Answer: > 30 min

Question: For `Cc1cccc(-n2nc(C)c3c2NC(=O)CSC3c2ccccc2Cl)c1` (stereo not drawn), which half-life is on record?
Answer: 1.63 min

Question: For `O=C1CCCC2=C1C(c1[nH]ncc1Cl)N=C(Nc1nc3ccc(Cl)cc3o1)N2` (stereo not drawn), which half-life is on record?
Answer: 10 min

Question: With `C[C@]12N[C@H](Cc3ccccc31)c1ccccc12` as the compound, how does the half-life read?
Answer: > 30 min

Question: With `Cc1cc(NS(=O)(=O)c2ccc(NC(=O)Cc3ccc(Cl)c(Cl)c3)cc2)no1` as the compound, how does the half-life read?
Answer: 9.7 min

Question: Which half-life does the source give for `COc1ccc(C(=O)Nc2nc(-c3ccccc3)cs2)c(OC)c1` here?
Answer: 18 min

Question: With `Cc1ccc(S(=O)(=O)n2cc(C(=O)Nc3nc(-c4ccccc4)cs3)c3ccccc32)cc1` as the compound, how does the half-life read?
Answer: 23 min

Question: For `O=C(CCCCCCC(=O)Nc1ccccc1)NO`, which half-life is on record?
Answer: > 30 min

Question: With `CC(=O)c1c(C)[nH]c(C(=O)Nc2cccc([S+](=O)([O-])Nc3ccccn3)c2)c1C` as the compound, how does the half-life read?
Answer: > 30 min

Question: Which half-life does the source give for `OCCOCCN1CCN(C(c2ccccc2)c2ccc(Cl)cc2)CC1` (stereo not drawn) here?
Answer: 5.93 min

Question: Which half-life does the source give for `Nc1ncccc1-c1nc2ccc(-c3ccccc3)nc2n1-c1ccc(C2(N)CCC2)cc1` here?
Answer: > 30 min

Question: With `CC1(C)CC2CC(C)(CN2S(=O)(=O)c2ccc(C(=O)Nc3ccc(Cl)cc3)cc2)C1` (stereo not drawn) as the compound, how does the half-life read?
Answer: 2.3 min

Question: Which half-life does the source give for `CCOc1ccccc1C(=O)Nc1ccccc1C(=O)Nc1cccc(C(F)(F)F)c1` here?
Answer: 22.8 min

Question: With `Fc1ccc(Cl)cc1-c1nc(Nc2ccncc2)c2nccnc2n1` as the compound, how does the half-life read?
Answer: 15.9 min

Question: Which half-life does the source give for `CC(C)(C)CN1CCNc2cc(Nc3ccccc3)ncc2C1` here?
Answer: 1.64 min

Question: With `c1ccc(-c2csc3ncnc(Sc4nnn(-c5ccccc5)n4)c23)cc1` as the compound, how does the half-life read?
Answer: 1.5 min

Question: Which half-life does the source give for `CCOC(=O)C1CCN(C(=O)C2(NC(=O)Nc3ccccc3Cl)CCCC2)CC1` here?
Answer: 1.5 min

Question: Which half-life does the source give for `Cc1ccc(S(=O)(=O)Nc2ccccc2C(=O)Nc2nc(-c3ccccc3)c(C)s2)cc1` here?
Answer: 6.3 min

Question: With `Cc1cc(N=Nc2ccc(S(=O)(=O)Nc3ccccn3)cc2)c(N)cc1O` as the compound, how does the half-life read?
Answer: > 30 min

Question: With `O=C(Nc1nc(-c2ccccc2)cs1)c1ccncc1NS(=O)(=O)c1ccc(N2CCCC2=O)cc1` as the compound, how does the half-life read?
Answer: 1.6 min

Question: With `Cn1cc(Cl)c(C2N=C(Nc3nc4ccccc4o3)NC3=C2C(=O)CCC3)n1` (stereo not drawn) as the compound, how does the half-life read?
Answer: 7.84 min

Question: With `Cc1ccc(-c2cc(C(=O)Nc3ccccn3)c3ccccc3n2)cc1` as the compound, how does the half-life read?
Answer: 23.8 min

Question: Which half-life does the source give for `NC(=O)C1CCN(c2ncc(-c3ccc(Cl)cc3)s2)CC1` here?
Answer: 5.97 min

Question: For `Cc1ccc(S(=O)(=O)Nc2ccccc2N2CCCCC2)cc1`, which half-life is on record?
Answer: 1.69 min

Question: Which half-life does the source give for `CCN1CCN(c2ccc3cc(S(=O)(=O)N4CCOCC4)ccc3n2)CC1` here?
Answer: 16 min

Question: Which half-life does the source give for `Cc1cc(C)nc(NC(=S)N2CCN(c3ccc(C(F)(F)F)cc3[N+](=O)[O-])CC2)c1` here?
Answer: > 30 min

Question: For `CC(C)(C)OC(=O)N[C@@H](Cc1ccc(O[S+](=O)([O-])c2cccc3cnccc23)cc1)C(=O)N1CCN(Cc2ccccc2)CC1`, which half-life is on record?
Answer: 1.6 min

Question: For `Cc1nc(-c2ccccc2)cc([C@H]2CN3CC[C@H]2C[C@@H]3CNC2CCOCC2)n1`, which half-life is on record?
Answer: > 30 min

Question: For `Cc1noc(C)c1C(=O)N1CCC2(CC1)CCN(C(c1ccccc1)c1ccccc1)CC2`, which half-life is on record?
Answer: 9.4 min

Question: Which half-life does the source give for `Clc1ccccc1Nc1nc(-c2ccncc2)nc2ccccc12` here?
Answer: 11 min

Question: For `COc1ccc(NC(=O)c2cccnc2C)cc1S(=O)(=O)Nc1ccc(Br)cc1`, which half-life is on record?
Answer: 11 min

Question: With `Fc1cc(Nc2nc(-c3ccncc3)nc3ccccc23)ccc1-n1cncn1` as the compound, how does the half-life read?
Answer: 13 min

Question: For `CNC(=O)c1ccc(C)c(-n2c(C)cc(OCc3ccc(F)cc3F)c(Br)c2=O)c1`, which half-life is on record?
Answer: > 30 min

Question: Which half-life does the source give for `O=C(O)CCNc1cc(N2CCc3ccccc3CC2)nc(-c2ccccn2)n1` here?
Answer: > 30 min

Question: With `O=C1CCCC2=C1C(c1[nH]ncc1Cl)N=C(Nc1nc3ccc(F)cc3o1)N2` (stereo not drawn) as the compound, how does the half-life read?
Answer: 14 min

Question: Which half-life does the source give for `Fc1cc(Nc2nc(-c3ccncc3)nc3ccccc23)ccc1OCC(F)(F)F` here?
Answer: 28 min

Question: Which half-life does the source give for `O=C1CCCC2=C1C1(CCCC1)N=C(Nc1nc3cc(Br)ccc3o1)N2` here?
Answer: 4.9 min

Question: Which half-life does the source give for `Cc1cc(C)nc(NC(=S)N2CCN(c3ccc4nsnc4c3)CC2)c1` here?
Answer: 15.2 min

Question: For `Cc1ccc2oc(NC3=NC4(CCCC4)C4=C(CCCC4=O)N3)nc2c1`, which half-life is on record?
Answer: 2.7 min

Question: With `COc1cc(C(=O)Nc2nc(-c3ccccc3)cs2)ccc1NS(=O)(=O)c1ccc(C)cc1` as the compound, how does the half-life read?
Answer: 5.2 min

Question: Which half-life does the source give for `Cc1ccnc(NC(=S)N2CCN(c3cc(C(F)(F)F)cc(C(F)(F)F)c3)CC2)c1` here?
Answer: > 30 min

Question: With `CN(C)c1cccc(-c2cnc(N3CCC(c4ncc[nH]4)CC3)s2)c1` as the compound, how does the half-life read?
Answer: 4.63 min

Question: With `COC(=O)c1ccc2c(C(=Nc3ccc(N(C)C(=O)CN4CCN(C)CC4)cc3)c3ccccc3)c(O)[nH]c2c1` as the compound, how does the half-life read?
Answer: > 30 min

Question: For `COc1ccc2[nH]c3c(C)c4ccncc4c(C)c3c2c1`, which half-life is on record?
Answer: > 30 min

Question: With `Cc1ccc2oc3c(c(=O)c2c1)C(c1ccc(O)cc1)N(CCCN(C)C)C3=O` (stereo not drawn) as the compound, how does the half-life read?
Answer: > 30 min

Question: For `CC(=O)c1c(C)[nH]c(C(=O)Nc2cccc([S+](=O)([O-])Nc3ccccc3)c2)c1C`, which half-life is on record?
Answer: 4.2 min

Question: Which half-life does the source give for `CC(=O)c1sc(NC(=O)c2ccco2)nc1-c1ccccc1` here?
Answer: 1.8 min

Question: For `Cc1ccc(S(=O)(=O)Nc2ccc(C(=O)Nc3nc(-c4ccccc4)cs3)cc2Cl)cc1`, which half-life is on record?
Answer: 4 min

Question: With `O=C(Cc1ccc2ccccc2c1)Nc1ccc(S(=O)(=O)Nc2nccs2)cc1` as the compound, how does the half-life read?
Answer: > 30 min

Question: With `c1cc(-c2cc(-c3ccncc3)c3cncn3c2)c2[nH]ccc2c1` as the compound, how does the half-life read?
Answer: 7.16 min

Question: Which half-life does the source give for `CCCS(=O)(=O)c1nc(NC2CC2)cc(-c2ccc3c(ccn3C3CC(C)(C)NC(C)(C)C3)c2)n1` here?
Answer: > 30 min

Question: For `CC(C)c1ccccc1-c1ncc(F)c(NC(C)(C)c2ccc(-c3cccnc3)cc2)n1`, which half-life is on record?
Answer: 2.3 min

Question: For `COc1ccc(-n2nc(C3CCN(C(=O)C4CC4)CC3)[nH]c2=O)cc1`, which half-life is on record?
Answer: > 30 min

Question: Which half-life does the source give for `CCc1[nH]c2ccc(CNC(=O)Cc3cnc4c(C)cccn34)cc2c1C` here?
Answer: 2.4 min

Question: With `O=C(c1ccc2ccccc2c1)N1CCN(c2ccc(O)cc2)CC1` as the compound, how does the half-life read?
Answer: > 30 min

Question: With `Cc1ccccc1C(=O)N1CCc2cc(-c3nc(NC(=O)Cc4ccc5ccccc5c4)sc3C)ccc21` as the compound, how does the half-life read?
Answer: > 30 min

Question: With `COc1cc(-c2nc(Nc3ccc(F)c(F)c3)c3ccccc3n2)ccn1` as the compound, how does the half-life read?
Answer: > 30 min

Question: Which half-life does the source give for `O=C1CCCC2=C1C(c1ccncc1Cl)N=C(Nc1nc3ccccc3o1)N2` (stereo not drawn) here?
Answer: 6.6 min

Question: Which half-life does the source give for `Cc1ccc(C(=O)[C@H]2CC[C@@H](C(=O)Nc3ccc(S(=O)(=O)Nc4nccs4)cc3)C2)cc1C` here?
Answer: 2.5 min

Question: Which half-life does the source give for `Oc1ccc(CNc2ccc(F)cc2F)c2cccnc12` here?
Answer: 3.19 min

Question: With `COc1ccc(CN2CCc3c(c(=O)n4ncc(C(=O)N5CCN(c6ccccc6OC)CC5)c4n3C)C2)cc1` as the compound, how does the half-life read?
Answer: 1.97 min

Question: Which half-life does the source give for `NC(=O)c1sc2nc3c(c(-c4cccs4)c2c1N)CCCC3` here?
Answer: 2 min

Question: With `Clc1ccc(C2=Nn3c(nnc3-c3ccncc3)SC2)cc1` as the compound, how does the half-life read?
Answer: 9.1 min

Question: With `Cc1cc(C)c(CNC(=O)c2nc(-c3ccc(CN(C)C)cc3)cc3c2ccn3C(C)C)c(=O)[nH]1` as the compound, how does the half-life read?
Answer: > 30 min

Question: With `COc1cccc(CNc2ccc(S(=O)(=O)Nc3ccc(C4CCNCC4)cc3)cc2)c1O` as the compound, how does the half-life read?
Answer: 29 min

Question: For `COc1cc(-c2ccnc3c2c(C)nn3-c2ccc(C(F)(F)F)cc2)ccc1O`, which half-life is on record?
Answer: > 30 min

Question: For `O=C(c1nc(-c2ccc(Cl)nc2)c2ccccn12)N1CCCC1`, which half-life is on record?
Answer: 8.91 min

Question: For `O=C(O)CNC(=O)c1c(O)c2ccccc2n(Cc2ccccc2)c1=O`, which half-life is on record?
Answer: 23.6 min

Question: With `Cc1ccc(C(=O)Nc2nc(-c3ccccn3)cs2)cc1S(=O)(=O)N1CCOCC1` as the compound, how does the half-life read?
Answer: 4.16 min
